# pIC50: −log10 of the molar value. Where two headings read alike, the source gives them in different places.
# What was measured:
# Assay in all cases: Colony formation (CFU) assay
# Format in all cases: cell-based
# KM12 = details: Homo sapiens; KM12, colon
# Description: (§1) In vitro experiments were conducted using the colony formation unit (CFU) assay on various cell lines. The CFU assay involved first establishing what cell plating density enabled the development of clearly interspersed colonies on a six-well plate when left to grow for around 14 days. […] Media was changed on day 8 containing appropriate concentrations of DMSO, USP1 inhibitor, Niraparib, or Olaparib. At or around day 14 when clearly interspersed colonies were visible in the DMSO treated wells, the cells were fixed and stained using 0.1% crystal violet in 10% ethanol for 20 minutes at room temperature. The plates were imaged then the amount of crystal violet stain in each well was quantified by extracting the crystal violet into 10% acetic acid and the absorbance measured at 565 nm.
# (§2) IC50 values were calculated by fitting a two-parameter hill equation to the dose-response measurements. Non-linear-least-squares was used to find parameter values that minimize the squared error of the model fit to measured dose response. Non-linear-least-squares estimation was performed using the minpack.lm R package, version 1.2-1. Bliss synergy scores were calculated using the synergyfinder R package version 1.6.1.
# CW2 = details: Homo sapiens, CW-2, CW2, colon
# Description: as §1, §2
# G292CLONEA141B1 = details: G292CLONEA141B1, bone
# Description: as §1, §2
# SKOV3_ATMnull = details: ovary
# Description: as §1, §2
# UMUC3 = details: Homo sapiens; UMUC3, bladder
# Description: as §1, §2
# SNU1076 = details: SNU1076, head and neck
# Description: as §1, §2
# HSC3 = details: Homo sapiens, HSC-3; HSC3, head and neck
# Description: as §1, §2
# HCC1806 = details: Homo sapiens, HCC1806, breast
# Description: as §1, §2
# HT144 = details: Homo sapiens, HT-144; HT144, skin
# Description: as §1, §2
# SNU213 = details: SNU213, pancreas
# Description: as §1, §2
# SNU489 = details: SNU489, nervous system
# Description: as §1, §2
# MSTO211H = details: Homo sapiens, MSTO-211H
# Description: as §1, §2
# KMBC2 = details: KMBC2, bladder
# Description: as §1, §2
# CFPAC1 = details: Homo sapiens, CFPAC-1; CFPAC1, pancreas
# Description: as §1, §2
# SKOV3 = details: Homo sapiens, SK-OV-3; SKOV3, ovary
# Description: as §1, §2
# HCT116 = details: Homo sapiens, HCT-116, HCT116, colon
# Description: as §1, §2
# COV362 = test system: COV362
# Description: as §1, §2
# PK8 = details: PK8, pancreas
# Description: as §1, §2
# SNGM = details: uterus
# Description: as §1, §2
# PK45H = details: pancreas
# Description: as §1, §2
# ECGI10 = details: ECGI10, esophagus
# Description: as §1, §2
# HT1080 = details: Homo sapiens, HT-1080; HT1080, soft tissue
# Description: as §1, §2
# YD38 = details: YD38, head and neck
# Description: as §1, §2
# MDAMB436 = details: Homo sapiens, MDA-MB-436, MDAMB436, breast
# Description: as §1, §2
# NCIH520 = details: Homo sapiens, NCI-H520, NCIH520, lung
# Description: as §1, §2
# JIMT1 = details: Homo sapiens, JIMT-1; JIMT1, breast
# Description: as §1, §2
# UWB1289BRCA1 = details: UWB1289BRCA1, ovary
# Description: as §1, §2
# TE11 = details: Homo sapiens, TE-11, TE11, esophagus
# Description: as §1, §2
# HPAC = details: Homo sapiens
# Description: as §1, §2
# BICR56 = details: BICR56, head and neck
# Description: as §1, §2
# GB1 = details: Homo sapiens, GB-1; GB1, nervous system
# Description: In vitro experiments were conducted using the colony formation unit (CFU) assay on various cell lines. The CFU assay involved first establishing what cell plating density enabled the development of clearly interspersed colonies on a six-well plate when left to grow for around 14 days. Once this density had been identified, cells were plated on day −1 and on day 0, the wells were treated with DMSO or increasing concentrations of USP1 inhibitor or Niraparib (3 nM, 10 nM, 30 nM, 100 nM, and 300 nM), or increasing concentrations of USP1 inhibitor or Olaparib (3 nM, 10 nM, 30 nM, 100 nM, and 300 nM). Media was changed on day 8 containing appropriate concentrations of DMSO, USP1 inhibitor, Niraparib, or Olaparib. […] The plates were imaged then the amount of crystal violet stain in each well was quantified by extracting the crystal violet into 10% acetic acid and the absorbance measured at 565 nm.
# as §2, with “Non-linear-least-squares estimation was performed using the minpack.lm R package, version 1.2-1.” left out
Compound,pIC50 (KM12),pIC50 (CW2),pIC50 (G292CLONEA141B1),pIC50 (SKOV3_ATMnull),pIC50 (UMUC3),pIC50 (SNU1076),pIC50 (HSC3),pIC50 (HCC1806),pIC50 (HT144),pIC50 (SNU213),pIC50 (SNU489),pIC50 (MSTO211H; lung),pIC50 (KMBC2),pIC50 (CFPAC1),pIC50 (SKOV3),pIC50 (HCT116),activity as single agents (COV362; COV362),pIC50 (PK8),pIC50 (SNGM),pIC50 (PK45H),further results
"NC(=O)c1cccc2cn(-c3ccc([C@@H]4CCCNC4)cc3)nc12 [Niraparib, niraparib, reference compound]",6.97,< 6.52,< 6.52,< 6.52,< 6.52,< 6.52,< 6.52,7.20,6.94,< 6.52,< 6.52,< 6.52,< 6.52,< 6.52,< 6.52,< 6.52,modest activity,< 6.52,< 6.52,< 6.52,"pIC50 (COV362; COV362, ovary, read-out: IC50): 6.75; pIC50 (ECGI10): < 6.52; pIC50 (HT1080): < 6.52; pIC50 (YD38): < 6.52; pIC50 (MDAMB436): 8.33; pIC50 (NCIH520): < 6.52; pIC50 (JIMT1): 7.60; pIC50 (UWB1289BRCA1): 6.73; pIC50 (TE11): 6.75; pIC50 (HPAC; pancreas): < 6.52; pIC50 (BICR56): < 6.52; pIC50 (GB1): < 6.52"
"COc1ncnc(C2CC2)c1-c1ncc2cnn(Cc3ccc(-c4nc(C(F)(F)F)cn4C(C)C)cc3)c2n1 [Formula I, 6-(4-cyclopropyl-6-methoxypyrimidin-5-yl)-1-(4-(1-isopropyl-4-(trifluoromethyl)-1H-imidazol-2-yl)benzyl)-1H-pyrazolo[3,4-d]pyrimidine]",–,–,–,–,–,–,–,–,–,–,–,–,–,–,–,–,–,–,–,–,"pIC50 (CW2; Table 2): 7.17; pIC50 (HCC1806; Table 2): 7.21; pIC50 (MSTO211H; Table 2, lung): < 6.50; pIC50 (HCT116; Table 2): < 6.50; pIC50 (COV362; Table 2, COV362, ovary, read-out: IC50): 6.69; pIC50 (MDAMB436; Table 2): 8.35; pIC50 (NCIH520; Table 2): < 6.50; pIC50 (UWB1289BRCA1; Table 2): 6.95; pIC50 (TE11; Table 2): < 6.50; pIC50 (HPAC; Table 2, pancreas): < 6.50"
"COc1ncnc(C2CC2)c1-c1ncc2cnn(Cc3ccc(-c4nc(C(F)(F)F)cn4C)cc3)c2n1 [Formula II, 6-(4-cyclopropyl-6-methoxypyrimidin-5-yl)-1-(4-(1-methyl-4-(trifluoromethyl)-1H-imidazol-2-yl)benzyl)-1H-pyrazolo[3,4-d]pyrimidine]",6.66,< 6.52,< 6.52,< 6.52,< 6.52,< 6.52,< 6.52,6.94,7.07,< 6.52,< 6.52,< 6.52,< 6.52,< 6.52,< 6.52,6.96,modest activity,< 6.52,< 6.52,6.53,pIC50 (COV362; COV362): < 6.52; pIC50 (ECGI10): < 6.52; pIC50 (HT1080): < 6.52; pIC50 (YD38): < 6.52; pIC50 (MDAMB436): 8.19; pIC50 (NCIH520): < 6.52; pIC50 (JIMT1): 7.78; pIC50 (UWB1289BRCA1): 6.86; pIC50 (TE11): 6.87; pIC50 (HPAC; pancreas): < 6.52; pIC50 (BICR56): < 6.52; pIC50 (GB1): < 6.52
